Results reported in patent US8784804B2, “Nutraceutical composition that comprises extract of andean shilajit, for preventing and/or treating neurodegenerative diseases and/or the cognitive deterioration associated with cerebral aging” (Centro Internacional de Biomedicina (ICC), priority 2009, dated 2014).

Test system: neuroblastoma cells (N-115 cell line)
Assay: Shilajit's toxicity in nerve cell culture (MTT assay, calcein-AM)
Format: cell-based
Conditions: 10 mM H2O2, positive control of neuronal death
Method: The toxicity of the composition's main component was determined, whose toxicity in nerve cells was unknown up to now. This study consisted in the application of concentrations ranging from 10 to 50 mg/mL to a culture of neuroblastoma cells (N-115 cell line) (MTT assay) and subsequent observation of neuronal death through fluorescent microscopy using the calcein-AM method that determines the morphologic integrity.

`OO` [H2O2] was tested, and the “% neuronal death” value was 100.0% and the A550 was 0.050.
